According to patent publication US20230114123A1, “METHOD OF STIMULATING ASYMMETRIC DIVISION OF SATELLITE STEM CELLS” (Ottawa Hospital Research Institute, priority 2017, published 2023):

Test system: EGFR phosphorylation
Test: p-EGFR immunoblot in serum-starved, re-fed primary myoblasts
Assay type: cell-based, mouse
Conditions: 1 h
Description: Cell Culture and Co-Immunoprecipitation. Satellite cells were isolated from WT mice by fluorescence activated cell sorting and cultured as primary myoblasts on collagen-coated plates in primary myoblast growth media (Ham's F10 media (Gibco) with 20% FBS (Wisent), 1% penicillin-streptomycin (Gibco) and 5 ng/mL bFGF (Cedarlane)).
Immunoblotting. Proteins were separated on 10% SDS-PAGE and transferred to Immobilon-P PVDF membrane (EMD Millipore). Membranes were probed with primary antibodies, followed by light chain specific HRP-conjugated secondary antibodies at 1:5000 (Bio-Rad) and developed using Immobilon Western HRP substrate (EMD Millipore). Membranes were visualized using FluorChem HD2 (Alpha Innotech) or exposed to BIOMAX film (Eastman Kodak).

`CCc1oc2cc(S(=O)(=O)Nc3ccc(S(=O)(=O)Nc4nccs4)cc3)ccc2c1C(=O)c1cc(Br)c(O)c(Br)c1` [PTP1b inhibitor, 3-(3,5-dibromo-4-hydroxy-benzoyl)-2-ethyl-benzofuran-6-sulfonicacid-(4-(thiazol-2-ylsulfamyl)-phenyl)-amide, reference compound] was tested, and the “increase in EGFR phosphorylation (p-EGFR grey values)” value (growth media alone, FIGS. 12A and 12B) was 80% and the “increase in EGFR phosphorylation (p-EGFR grey values)” value (in the presence of added recombinant EGF) was 20%.
